According to PMC8608967, “KDS2010, a Newly Developed Reversible MAO-B Inhibitor, as an Effective Therapeutic Candidate for Parkinson’s Disease” (Neurotherapeutics, 2021):
Read-outs that look alike come from different tables or passages of the source.

How the values were obtained:
[1] = biological target: T1, human recombinant MAO-B (hMAO-B) (Homo sapiens, UniProt P27338); assay: In vitro MAO-B enzyme assay (H2O2 release, absorbance 570 nm); format: biochemical; details: for IC50: hMAO-B, substrate benzylamine, read-out: Inhibition (IC50) MAO-B; for SI (selectivity index), IC50(MAO-A)/IC50(MAO-B): selectivity for MAO-B isoform
T1 construct: purchased Sigma Aldrich
T1 sequence (P27338 1-520): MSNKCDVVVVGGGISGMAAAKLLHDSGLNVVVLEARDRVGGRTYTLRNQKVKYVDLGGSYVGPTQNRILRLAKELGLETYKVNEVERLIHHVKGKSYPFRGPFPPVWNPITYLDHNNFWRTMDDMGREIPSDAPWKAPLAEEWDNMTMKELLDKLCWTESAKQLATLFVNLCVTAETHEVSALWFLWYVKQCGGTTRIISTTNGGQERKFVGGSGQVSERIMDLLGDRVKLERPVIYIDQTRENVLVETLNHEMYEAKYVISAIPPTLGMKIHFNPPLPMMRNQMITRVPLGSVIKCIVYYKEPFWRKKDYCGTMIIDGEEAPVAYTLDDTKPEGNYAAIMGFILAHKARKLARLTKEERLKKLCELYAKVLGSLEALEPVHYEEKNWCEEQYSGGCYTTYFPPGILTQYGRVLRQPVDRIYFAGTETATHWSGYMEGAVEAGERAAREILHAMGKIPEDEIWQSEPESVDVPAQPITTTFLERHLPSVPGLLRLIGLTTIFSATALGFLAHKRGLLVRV
Description: (§1) In brief, human recombinant MAO-A (hMAO-A) and MAO-B (hMAO-B) (Sigma Aldrich) were diluted in 50 mM phosphate buffer (~ 0.3 μg MAO-A protein/well or ~ 2.5 μg MAO-B protein/well), and the test compound was added in DMSO to a final concentration from 0.1 nM to 10 μM. The amount of hydrogen peroxide (H2O2) released after addition of enzyme substrate (p-tyramine for MAO-A or benzylamine for MAO-B) was quantified by measuring the absorbance increase at 570 nm on a microplate reader.

[2] = biological target: T2, human recombinant MAO-A (hMAO-A) (Homo sapiens, UniProt P21397); assay: In vitro MAO-A enzyme assay (H2O2 release, absorbance 570 nm); format: biochemical; details: substrate p-tyramine, read-out: Inhibition (IC50) MAO-A
T2 construct: purchased Sigma Aldrich
T2 sequence (P21397 1-527): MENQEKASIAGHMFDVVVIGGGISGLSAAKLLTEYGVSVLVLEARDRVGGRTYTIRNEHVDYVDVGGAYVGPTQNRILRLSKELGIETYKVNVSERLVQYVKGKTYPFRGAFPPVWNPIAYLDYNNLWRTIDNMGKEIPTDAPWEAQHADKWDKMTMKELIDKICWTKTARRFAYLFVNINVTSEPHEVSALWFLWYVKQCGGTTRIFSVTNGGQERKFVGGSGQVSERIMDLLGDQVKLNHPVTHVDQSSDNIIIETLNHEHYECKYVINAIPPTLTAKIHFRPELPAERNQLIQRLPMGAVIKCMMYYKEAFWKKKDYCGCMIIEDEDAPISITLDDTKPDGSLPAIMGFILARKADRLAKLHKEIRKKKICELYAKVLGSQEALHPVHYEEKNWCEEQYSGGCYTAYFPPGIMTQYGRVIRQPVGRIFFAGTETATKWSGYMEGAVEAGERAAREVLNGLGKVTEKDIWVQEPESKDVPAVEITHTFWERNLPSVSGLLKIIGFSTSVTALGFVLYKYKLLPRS
Description: as §1

[3] = biological target: T1, human recombinant MAO-B (hMAO-B); details: cited from earlier work; for IC50: read-out: Inhibition (IC50) MAO-B; for SI (selectivity index), IC50(MAO-A)/IC50(MAO-B): selectivity for MAO-B isoform
[4] = biological target: T2, human recombinant MAO-A (hMAO-A); details: ref Park, JH. et al. Science Advances. 5(3), eaav0136 (2019), read-out: Inhibition (IC50) MAO-A; cited from earlier work
[5] = tested on: MPTP-induced PD mouse model; assay: MPTP mouse model: vertical grid test and coat hanger test; format: in vivo; details: MPTP mice; long-term (30-day) treatment, 10 mg/kg/day oral
Description: Group allocation and outcome assessment, but not the conduct of experiments and data analysis, were performed in a blinded manner. Throughout the study, confounders were not controlled. An acclimation period of 7 days was allowed for animals to stabilize in a new environment before model induction. […] Treatment drugs were dissolved in 100 μL of water and total dose (in mg) was calculated according to individual body weight (in kg).
The MPTP model was established using the acute regimen of four intraperitoneal (i.p.) injections of MPTP-HCl (M0896, Sigma Aldrich, 2 mg/mL in saline, 20 mg/kg for one injection) at 2-h intervals.
Motor deficits of the MPTP-induced PD mouse model were assessed using the vertical grid test as described in the previous study [23]. Briefly, after 2 days of habituation to the testing apparatus, individual mice were gently placed 3 cm from the top, facing upward, and allowed to turn around and climb down. We also performed a coat hanger test as described [24–26]. Briefly, a mouse was gently hung on the middle of a coat hanger and allowed to ascend to the top. Performance was graded as follows: 0, falling off the hanger within 20 s; 1, moving to the side-bar of the hanger; 2, reaching the side-bar of the hanger; 3, climbing the side-bar of the hanger; 4, moving to the top of the hanger; 5, climbing and reaching the safe zone. The test was performed twice and each trial lasted a maximum of 3 min.

[6] = hMAO-B, ref Park, JH. et al. Science Advances. 5(3), eaav0136 (2019)
[7] = ref Park, JH. et al. Science Advances. 5(3), eaav0136 (2019)

IC50 [1] [µM]	IC50 [2] [µM]	melting point [°C]	SI (selectivity index), IC50(MAO-A)/IC50(MAO-B) [1]	SMILES	IC50 [4] [µM]	also measured
> 10	> 100	252 to 255	–	CCC(C)[C@H](NCc1ccc(-c2cccc(F)c2)cc1)C(N)=O (stereo partly shown) [Compound 23c]	–	–
> 10	> 100	243 to 245	–	COc1ccc(-c2ccc(CNCC(N)=O)cc2)cc1 [Compound 17n]	–	–
5.3 ± 0.09	> 100	267 to 270	> 19	CC(C)C[C@H](NCc1ccc(-c2ccc(C(F)(F)F)cc2)cc1)C(N)=O [Compound 22j]	–	–
5 to 10	> 100	263 to 265	–	CCC(C)[C@H](NCc1ccc(-c2cccc(C(F)(F)F)c2)cc1)C(N)=O (stereo partly shown) [Compound 23i]	–	–
–	–	220 to 223	–	C[C@H](NCc1ccc(-c2ccc(Cl)cc2)cc1)C(N)=O [Compound 18g]	> 100	IC50 [3, 6]: 0.182 ± 0.007 µM; SI (selectivity index), IC50(MAO-A)/IC50(MAO-B) [3, 7]: > 549
4.07 ± 0.15	> 100	266 to 267	> 25	CC(C)[C@H](NCc1ccc(-c2ccc(C(F)(F)F)cc2)cc1)C(N)=O [Compound 21j]	–	–
–	–	–	–	CC(NCc1ccc(-c2ccc(C(F)(F)F)cc2)cc1)C(N)=O (stereo not shown) [Compound 19j]	> 100	–
> 10	> 100	240 to 242	–	COc1cccc(-c2ccc(CN[C@@H](CC(C)C)C(N)=O)cc2)c1 [Compound 22m]	–	–
–	–	252 to 256	–	C[C@H](NCc1ccc(-c2ccccc2)cc1)C(N)=O [Compound 18a]	> 100	IC50 [3, 6]: > 10 µM
1.56 ± 0.071	> 100	165 to 168	> 64	NC(=O)CNCc1ccc(-c2cccc(Cl)c2)cc1 [Compound 17f]	–	–
> 10	> 100	239 to 243	–	CC(C)C[C@H](NCc1ccc(-c2cccc(C(F)(F)F)c2)cc1)C(N)=O [Compound 22i]	–	–
> 10	> 100	232 to 233	–	CC(C)C[C@H](NCc1ccc(-c2cccc(OC(F)(F)F)c2)cc1)C(N)=O [Compound 22k]	–	–
0.999 ± 0.059	> 100	168 to 169	> 100	NC(=O)CNCc1ccc(-c2cccc(C(F)(F)F)c2)cc1 [Compound 17i]	–	–
> 10	> 100	264 to 265	–	CC(C)C[C@H](NCc1ccc(-c2cccc(F)c2)cc1)C(N)=O [Compound 22c]	–	–
–	–	220 to 223	–	C[C@H](NCc1ccc(-c2cccc(Cl)c2)cc1)C(N)=O [Compound 18f]	> 100	IC50 [3, 6]: 0.242 ± 0.008 µM; SI (selectivity index), IC50(MAO-A)/IC50(MAO-B) [3, 7]: > 413
0.242 ± 0.008	> 100	253 to 256	> 413	CC[C@H](NCc1ccc(-c2ccc(C(F)(F)F)cc2)cc1)C(N)=O [Compound 20j]	–	–
0.137 ± 0.07	> 100	217 to 220	> 730	NC(=O)CNCc1ccc(-c2ccc(OC(F)(F)F)cc2)cc1 [Compound 17l]	–	–

IC50 [1] [µM]	IC50 [2] [µM]	melting point [°C]	SI (selectivity index), IC50(MAO-A)/IC50(MAO-B) [1]	SMILES	IC50 [4] [µM]	also measured
–	–	216 to 220	–	C[C@H](NCc1ccc(-c2ccccc2Cl)cc1)C(N)=O [Compound 18e]	> 100	IC50 [3, 6]: > 10 µM
> 10	> 100	233 to 236	–	CS(=O)(=O)O.NC(=O)CNCc1ccc(-c2ccccc2)cc1 [Compound 17a]	–	–
0.121 ± 0.08	> 100	255 to 256	> 826	NC(=O)CNCc1ccc(-c2ccc(C(F)(F)F)cc2)cc1 [Compound 17j]	–	fold increase in the IC50 for MAO-B inhibition versus 18j (KDS2010) ([1]; substitution of CH3 with H at X): 15 fold
–	–	256 to 259	–	C[C@H](NCc1ccc(-c2ccc(OC(F)(F)F)cc2)cc1)C(N)=O [Compound 18l]	> 100	SI (selectivity index), IC50(MAO-A)/IC50(MAO-B) [3, 7]: > 1,020
–	–	–	–	C[C@H](NCc1ccc(OCc2cccc(F)c2)cc1)C(N)=O [Safinamide, reference compound]	–	vertical grid test: time to turn [5]: reduced; vertical grid test: total time [5]: reduced
–	–	209 to 212	–	C[C@H](NCc1ccc(-c2cccc(OC(F)(F)F)c2)cc1)C(N)=O [Compound 18k]	> 100	SI (selectivity index), IC50(MAO-A)/IC50(MAO-B) [3, 7]: > 463
> 10	> 100	260 to 262	–	CCC(C)[C@H](NCc1ccc(-c2ccc(Cl)cc2)cc1)C(N)=O (stereo partly shown) [Compound 23g]	–	–
1.43 ± 0.1	> 100	262 to 266	> 70	NC(=O)CNCc1ccc(-c2ccc(Cl)cc2)cc1 [Compound 17g]	–	–
> 10	> 100	238 to 242	–	NC(=O)CNCc1ccc(-c2ccc(F)cc2)cc1 [Compound 17d]	–	–
> 10	> 100	274 to 278	–	CC(C)[C@H](NCc1ccc(-c2cccc(C(F)(F)F)c2)cc1)C(N)=O [Compound 21i]	–	–
5 to 10	> 100	248 to 250	–	CCC(C)[C@H](NCc1ccc(-c2cccc(Cl)c2)cc1)C(N)=O (stereo partly shown) [Compound 23f]	–	–
0.325 ± 0.09	> 100	253 to 256	> 307	CC(C)Cc1ccc(-c2ccc(CN[C@@H](C)C(N)=O)cc2)cc1 [Compound 18o]	–	–
0.099 ± 0.005	> 100	–	> 1,010	CC[C@H](NCc1ccc(-c2ccc(OC(F)(F)F)cc2)cc1)C(N)=O [Compound 20l]	–	–
3.33 ± 0.054	> 100	231 to 233	> 30	COc1ccc(-c2ccc(CN[C@@H](C)C(N)=O)cc2)cc1 [Compound 18n]	–	–
0.323 ± 0.088	> 100	152 to 156	> 310	NC(=O)CNCc1ccc(-c2cccc(OC(F)(F)F)c2)cc1 [Compound 17k]	–	–
–	–	224 to 227	–	C[C@H](NCc1ccc(-c2ccccc2C(F)(F)F)cc1)C(N)=O [Compound 18h]	> 100	IC50 [3, 6]: > 10 µM

SMILES	IC50 [1] [µM]	IC50 [2] [µM]	melting point [°C]	SI (selectivity index), IC50(MAO-A)/IC50(MAO-B) [1]	IC50 [4] [µM]	also measured
C[C@H](NCc1ccc(-c2cccc(C(F)(F)F)c2)cc1)C(N)=O [Compound 18i]	–	–	215 to 217	–	> 100	IC50 [3, 6]: 0.316 ± 0.006 µM; SI (selectivity index), IC50(MAO-A)/IC50(MAO-B) [3, 7]: > 316
C[C@H](NCc1ccc(-c2ccccc2F)cc1)C(N)=O [Compound 18b]	–	–	131 to 135	–	> 100	SI (selectivity index), IC50(MAO-A)/IC50(MAO-B) [3, 7]: > 12
C[C@H](NCc1ccc(-c2ccc(F)cc2)cc1)C(N)=O [Compound 18d]	–	–	162 to 164	–	> 100	SI (selectivity index), IC50(MAO-A)/IC50(MAO-B) [3, 7]: > 23
CC(=O)N[C@H]1CC(=O)N(c2ccc(OCc3cccc(F)c3)cc2)C1 [Sembragiline, reference compound]	0.015 ± 0.005	3.85	–	653	–	IC50 ([3]; positive control, literature value, ref Borroni, E. et al. J. Pharmacol. Exp. Ther. 362, 413–423 (2017)): 0.006 ± 0.001 µM
C[C@H](NCc1ccc(-c2cccc(F)c2)cc1)C(N)=O [Compound 18c]	–	–	235 to 238	–	> 100	SI (selectivity index), IC50(MAO-A)/IC50(MAO-B) [3, 7]: > 27
